From patent US20230148450A9, “BICYCLIC HETEROARYL COMPOUNDS AND USES THEREOF” (Revolution Medicines, Inc., priority 2019, published 2023)
pIC50, pKd: −log10 of the molar value. Where two headings read alike, the source gives them in different places.

Legend:
[1] = molecular target: T1, SOS1 catalytic domain (residues 564-1049) (Homo sapiens, UniProt Q07889); assay: Binding affinity to SOS1 using Surface Plasmon Resonance (SPR); conditions: avi-tagged SOS1 catalytic domain immobilized on sensor chip; read-out: SOS1 SPR Equilibrium Kd
T1 construct: SOS1 catalytic domain (residues 564-1049) immobilized on a sensor chip
T1 sequence (Q07889 564-1049): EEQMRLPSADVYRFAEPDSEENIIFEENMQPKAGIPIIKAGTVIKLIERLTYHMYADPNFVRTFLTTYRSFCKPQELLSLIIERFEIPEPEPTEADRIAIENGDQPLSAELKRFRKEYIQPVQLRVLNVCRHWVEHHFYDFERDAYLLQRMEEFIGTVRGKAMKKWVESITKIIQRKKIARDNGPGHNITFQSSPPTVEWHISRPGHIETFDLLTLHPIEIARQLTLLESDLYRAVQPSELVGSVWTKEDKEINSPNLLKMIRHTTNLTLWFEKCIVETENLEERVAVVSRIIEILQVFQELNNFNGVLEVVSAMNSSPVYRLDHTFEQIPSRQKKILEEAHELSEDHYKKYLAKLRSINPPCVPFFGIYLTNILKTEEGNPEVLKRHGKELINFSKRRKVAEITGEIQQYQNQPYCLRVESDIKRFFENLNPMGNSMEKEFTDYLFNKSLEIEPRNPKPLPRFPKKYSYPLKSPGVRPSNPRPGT
Excerpt: Potency Assay: Measurement of the Binding Affinity of Compounds of the Invention to SOS! using Surface Plasmon Resonance (SPR)
The purpose of the SPR assay was to measure the direct binding of compounds to SOS1 catalytic domain (residues 564-1049) immobilized on a sensor chip. Data was reported as equilibrium dissociation constant (Kd) values.
Using a GE Biacore 8K SPR instrument, avi-tagged SOS1 catalytic domain protein was immobilized to a level of approximately 6000 response units (RU) on a streptavidin-coated SPR sensor chip in assay buffer containing 0.01 M HEPES, 0.15 M NaCl and 0.05% v/v Surfactant P20. In assay buffer containing 2% DMSO, concentration series of test compounds were generated spanning 5 μM to 4.9 nM over ten 2-fold dilutions. For each test compound, a separate 0 μM sample was generated for use during subsequent double reference subtraction. Serially for each test compound, individual dilution samples were flowed over the immobilized SOS1 protein at a flow rate of 50 μL/minute to monitor the association with SOS1. Dissociation of bound test compound from the SOS1 protein was immediately monitored by flowing assay buffer over the sensor surface and monitoring the decrease in binding signal back to the baseline level seen in the absence of compound. This was repeated for all compound dilutions in each series. The binding level response for each test compound concentration was noted immediately prior to the end of the association phase, and a secondary plot generated showing binding response level versus test compound concentration generated for each compound dilution series.

[2] = tested on: cellular pERK in PC-9 cells (EGFR Ex19Del); assay: Potency Assay: pERK; type: cell-based; conditions: Homo sapiens, read-out: SOS1 pERK IC50
Excerpt: The purpose of this assay is to measure the ability of test compounds to inhibit SOS1 function in cells. SOS1 activates RAS proteins by catalyzing the conversion of […] to […] in response to receptor tyrosine kinase activation. Activation of RAS induces a sequence of cellular signaling events that results in increased phosphorylation of ERK at […] (pERK). The procedure described below measures the level of cellular pERK in response to test compounds in PC-9 cells (EGFR Ex[…]). PC-9 cells were grown and maintained using media and procedures recommended by the ATCC. On the day prior to compound addition, cells were plated in 384-well cell culture plates (40 μL/well) and grown overnight in a 37° C., 5% CO2 incubator. Test compounds were prepared in 10, 3-fold dilutions in DMSO, with a top concentration of 10 mM. On the day of the assay, 40 nL of test compound was added to each well of cell culture plate using an Echo550 liquid handler (LabCyte). Concentrations of test compound were tested in duplicate with highest test concentration being 10 μM. After compound addition, cells were incubated for 1 hour at 37° C., 5% CO2. Following incubation, culture medium was removed and cells were washed once with phosphate buffered saline. Cellular pERK level was determined using the AlphaLISA SureFire Ultra p-ERK1/2 Assay Kit (PerkinElmer). Cells were lysed in 25 μL lysis buffer, with shaking at 600 RPM at room temperature for 15 minutes. Lysate (10 μL) was transferred to a 384-well Opti-plate (PerkinElmer) and 5 μL acceptor mix was added. The plate was centrifuged at 1000 RPM for 1 minute, and incubated in the dark for 2 hours. Following this incubation, 5 μL of donor mix was added, the plate was sealed and centrifuged at 1000 RPM for 1 minute, and the mixture was incubated for 2 hours at room temperature. Signal was read on an Envision plate reader (PerkinElmer) using standard AlphaLISA settings. Analysis of raw data was carried out in Excel (Microsoft) and Prism (GraphPad). Signal was plotted vs. the decadal logarithm of compound concentration, and IC50 was determined by fitting a 4-parameter sigmoidal concentration response model.

[3] = molecular target: T2, SOS1 nucleotide exchange of KRAS (catalytic domain of SOS1, residues 564-1049; wild-type KRAS) (Homo sapiens, UniProt Q07889); assay: Mode of Action Assay: Inhibition of SOS1 Nucleotide Exchange Activity (TR-FRET); type: biochemical; conditions: TR-FRET signal
T2 construct: tagless catalytic domain of SOS1 (residues 564-1049)
T2 sequence (Q07889 564-1049): T1 sequence (Q07889 564-1049)
Method: The purpose of this assay was to characterize the inhibitory activity of compounds on SOS1 nucleotide exchange of KRAS. Data was reported as IC50 values based on the TR-FRET signal.
Note—the following protocol describes a procedure for monitoring the inhibition of SOS1 nucleotide exchange activity of wild-type KRAS in response to a compound of the invention. Other KRAS mutants and RAS isoforms maybe employed.
In assay buffer containing 20 mM HEPES, pH 7.5, 150 mM NaCl, 5 mM MgCl2, 0.05% Tween-20, 0.1% BSA, 1 mM DTT, concentration series of test compounds were generated spanning 100 μM to 1.7 nM over eleven 3-fold serial dilutions in a 384-well assay plate at a volume of 20 μL. The purified tagless catalytic domain of SOS1 (residues 564-1049) was first diluted in assay buffer at a concentration of 100 nM, and then 20 μL of the SOS1 containing solution was directly dispensed into compound plates. The SOS1/compound mixture was incubated at room temperature with constant mixing on an orbital shaker for 20 minutes to allow the reaction to reach equilibrium. A KRAS mixture was prepared by diluting 66.7 nM avi-tagged KRAS (residue 1-169), 3.33 nM Streptavidin-Tb and 333 nM EDA-GTP-DY-647P1 in assay buffer. This mixture was prepared immediately before addition to the SOS1/compound mixture to prevent intrinsic nucleotide exchange. Then 5 μL of the pre-incubated SOS1/compound mixture and 7.5 μL of the KRAS mixture were added sequentially in a 384-well low volume black round bottom plate and incubated at room temperature with constant shaking for 30 minutes. Time-resolved fluorescence was measured on a PerkinElmer Envision plate reader. DMSO and 10 μM of compound (i) were used as negative and positive controls, respectively.
Three replicates were performed for each compound. Data were normalized by the following: (Positive control—Sample signal)/(Positive control—negative control)*100. The data were fit using a four-parameter logistic fit.

[4] = PC-9 cells (EGFR Ex19Del), 1 hour incubation, AlphaLISA p-ERK1/2

CNCc1cc2c(N[C@H](C)c3cc(N)cc(C(F)(F)F)c3)nc(C)nn2c1 [Example 28, N-[(1R)-1-[3-amino-5-(trifluoromethyl)phenyl]ethyl]-2-methyl-6-(methylaminomethyl)pyrrolo[2,1-f][1,2,4]triazin-4-amine] was tested. Which pKd [1] did it give?
The pKd was less than 6.40.

And the pIC50 [2, 4]?
Its pIC50 is greater than 6.00.

With C[C@@H](Nc1nc(Cl)cn2cc(C(=O)N3CCOCC3)nc12)c1cc(N)cc(C(F)(F)F)c1 [Example 29, [8-[[(1R)-1-[3-amino-5-(trifluoromethyl)phenyl]ethyl]amino]-6-chloro-imidazo[1,2-a]pyrazin-2-yl]-morpholino-methanone] as the compound, how does the pIC50 [3] read?
Its pIC50 is less than 6.00.

And the pKd [1]?
Its pKd is less than 6.40.

And the pIC50 [2, 4]?
The pIC50 was less than 6.00.

Which results are given for COc1cc2c(N[C@H](C)c3cc(N)cc(C(F)(F)F)c3)nc(C)nn2c1 [Example 30, N-[(1R)-1-[3-amino-5-(trifluoromethyl)phenyl]ethyl]-6-methoxy-2-methyl-pyrrolo[2,1-f]-[1,2,4]triazin-4-amine]?
pKd [1]: < 6.40; pIC50 [2, 4]: < 6.00

Which results are given for C[C@@H](Nc1ncnc2cc(C(=O)N3CCOCC3)sc12)c1cc(N)cc(C(F)(F)F)c1 [Example 31, [4-[[(1R)-1-[3-amino-5-(trifluoromethyl)phenyl]ethyl]amino]thieno[3,2-d]pyrimidin-6-yl]-morpholino-methanone]?
pIC50 [3]: < 6.00; pKd [1]: ≥ 6.40; pIC50 [2, 4]: < 6.00

What does the source list for Cc1nc(N[C@H](C)c2cc(N)cc(C(F)(F)F)c2)c2cc(C(=O)N3CC(O)C3)cn2n1 [Example 33, [4-[[(1R)-1-[3-amino-5-(trifluoromethyl)phenyl]ethyl]amino]-2-methyl-pyrrolo[2,1-f][1,2,4]triazin-6-yl]-(3-hydroxyazetidin-1-yl)methanone]?
pIC50 [3]: > 6.00; pKd [1]: < 6.40; pIC50 [2, 4]: > 6.00

Which results are given for Cc1nc(N[C@H](C)c2cc(N)cc(C(F)(F)F)c2)c2cc(C3(O)CC(O)C3)cn2n1 (stereo partly drawn) [Example 35, (R)-1-(4-((1-(3-amino-5-(trifluoromethyl)phenyl)ethyl)amino)-2-methylpyrrolo[2,1-f][1,2,4]triazin-6-yl)cyclobutane-1,3-diol]?
pIC50 [3]: < 6.00; pKd [1]: ≥ 6.40; pIC50 [2, 4]: < 6.00

C[C@@H](Nc1cc(Cl)nc2nc(C(=O)N3CCOCC3)cn12)c1cc(N)cc(C(F)(F)F)c1 [Example 48, [5-[[(1R)-1-[3-amino-5-(trifluoromethyl)phenyl]ethyl]amino]-7-chloro-imidazo[1,2-a]pyrimidin-2-yl]-morpholino-methanone] was tested. Which pKd [1] did it give?
The pKd was less than 6.40.

What about the pIC50 ([2]; PC-9, 1 h) of the same compound?
The pIC50 was greater than 6.00.

Which results are given for C[C@@H](Nc1ncnc2cc(C3=CCNCC3)sc12)c1cc(N)cc(C(F)(F)F)c1 [Example 49, N-[(1R)-1-[3-amino-5-(trifluoromethyl)phenyl]ethyl]-6-(1,2,3,6-tetrahydropyridin-4-yl)thieno[3,2-d]pyrimidin-4-amine]?
pIC50 [3]: < 6.00; pIC50 [2, 4]: < 6.00

How did the pIC50 [3] turn out when C[C@@H](Nc1nccc2sc(C3=CCNCC3)cc12)c1cc(N)cc(C(F)(F)F)c1 [Example 56, N-[(1R)-1-[3-amino-5-(trifluoromethyl)phenyl]ethyl]-2-(1,2,3,6-tetrahydropyridin-4-yl)thieno[3,2-c]pyridin-4-amine] was run?
Its pIC50 is less than 6.00.

And the pIC50 [2, 4]?
Its pIC50 is less than 6.00.

Cc1cn2nc(C(=O)N3CCN(C)CC3)cc2c(N[C@H](C)c2cccc(C(F)(F)F)c2)n1 [Example 61] was tested. Which pIC50 [3] did it give?
Its pIC50 is less than 6.00.

And the pIC50 [2, 4]?
Its pIC50 is less than 6.00.

How did the pKd [1] turn out when Cc1nc(N[C@H](C)c2cc(N)cc(C(F)(F)F)c2)c2cc([C@]3(O)CC[C@H](C(=O)N(C)C)CC3)cn2n1 [Example 66, 4-[4-[[(1R)-1-[3-amino-5-(trifluoromethyl)phenyl]ethyl]amino]-2-methyl-pyrrolo[2,1-f][1,2,4]triazin-6-yl]-4-hydroxy-N,N-dimethylcyclohexanecarboxamide] was run?
Its pKd is no less than 6.40.

What about the pIC50 [2, 4] of the same compound?
The pIC50 was less than 6.00.

C[C@@H](Nc1nc(Cl)nn2cc(C(=O)N3CCOCC3)cc12)c1cc(N)cc(C(F)(F)F)c1 [Example 68] was tested. Which pIC50 [2, 4] did it give?
Its pIC50 is greater than 6.00.

Which results are given for Cc1cn2nc(C(=O)N3CC4CCC(C3)N4C)cc2c(N[C@H](C)c2cc(N)cc(C(F)(F)F)c2)n1 [Example 78]?
pIC50 [3]: > 6.00; pIC50 [2, 4]: > 6.00

With C[C@@H](Nc1nc(Cl)nn2cc(C(=O)N3CCN(C)CC3)cc12)c1cc(N)cc(C(F)(F)F)c1 [Example 94, N-[(1R)-1-[3-amino-5-(trifluoromethyl)-phenyl]ethyl]-2-chloro-6-(4-methylpiperazine-1-carbonyl)pyrrolo[2,1-f][1,2,4]triazin-4-amine] as the compound, how does the pIC50 [3] read?
Its pIC50 is greater than 6.00.

And the pIC50 [2, 4]?
Its pIC50 is greater than 6.00.

C[C@@H](Nc1nc(Cl)nn2cc(C(=O)N3CCN(C)CC3)cc12)c1cccc(C(F)(F)F)c1 [Example 95] was tested. Which pIC50 [3] did it give?
The pIC50 was less than 6.00.

What about the pIC50 [2, 4] of the same compound?
The pIC50 was less than 6.00.

C[C@@H](Nc1nc(Cl)nn2cc(C(=O)N3CC4(COC4)C3)cc12)c1cccc(C(F)(F)F)c1 [Example 96] was tested. Which pIC50 [3] did it give?
The pIC50 was less than 6.00.

And the pIC50 [2, 4]?
Its pIC50 is greater than 6.00.

Which results are given for C[C@@H](Nc1nc(Cl)nn2cc(C(=O)N3CCN(C)CC3)cc12)c1cccc(C(F)F)c1F [Example 98]?
pIC50 [3]: > 6.00; pIC50 [2, 4]: > 6.00

C[C@@H](Nc1nc(Cl)cn2cc(C(=O)N3CCOCC3)cc12)c1cc(N)cc(C(F)(F)F)c1 [Example 102, N-[(1R)-1-[3-amino-5-(trifluoromethyl)phenyl]ethyl]-3-chloro-7-(morpholine-4-carbonyl)pyrrolo [1,2-a]pyrazin-1-amine] was tested. Which pIC50 [3] did it give?
The pIC50 was less than 6.00.

What about the pIC50 [2, 4] of the same compound?
Its pIC50 is less than 6.00.
